Results from patent publication US5840859A, “(Aminostyryl)pyridinium compounds for radiolabelling cell membranes” (Research Corporation Technologies, Inc., priority 1996, dated 1998).

Legend:
mixed leukocytes = assay: Mixed leukocyte labeling yield; format: cell-based, canine; conditions: for Mixed leukocyte labeling yield: 125I labeled, average, 10-30 μCi, 250-325 Ci/mmol
Description: Labeling of mixed leukocytes (harvested from 20 mL canine blood) with 4a-d was performed using five different procedures: 1) labeling in Diluent C (a commercial non-ionic cell labeling media developed by Zynaxis Co. that is not approved for human use) after two saline washes of the cell pellet; 2) labeling in saline after two saline washes of the cell pellet; 3) labeling in saline with no saline washes of the cell pellet; 4 and 5) labeling in ether 10% or 100% platelet poor plasma (PPP).
Unwashed mixed leukocytes in 1.5 mL 10% PPP in saline were also tested. […]
This was evaporated to dryness under vacuum in a speed vac and reconstituted into 30 ul ethanol. Forty milliliters of canine blood was drawn into a 60 mL syringe containing 6.5 mL acetate-citrate-dextrose solution. To this was added 5.5 mL 2% methyl cellulose in saline. The contents of the syringe were gently mixed by several inversions of the syringe and the syringe placed vertically, needle end up, for 45 minutes to allow the red blood cells to settle. The plasma was drawn off and placed into a 50 mL Falcon tube. The tube was centrifuged at 1100 rpm for 15 minutes to pellet the leukocytes. The plasma was removed and the cells resuspended in 2 mL saline. In a 1 mL plastic microcentrifuge was placed 0.5 mL saline. […] The cells were then underlayered with 7.5 mL of platelet poor plasma and centrifuged at 1600 rpm for seven minutes to pellet the cells. The supernatant was removed, the cells resuspended in 10 mL saline, and transferred to a new tube. The supernatant, cells, and labeling tube were counted for radioactivity. The cells were centrifuged again at 1600 rpm for 7 minutes, the supernatant removed, and the cells resuspended.
A sample of canine blood (20 mL) was drawn into a 60 mL syringe containing 3 mL acetate-citrate-dextrose (ACD) solution. To this was added 3 mL 2% methyl cellulose in saline. The contents of the syringe were gently mixed by several inversions, and the syringe was then placed vertically, needle end up, for 45 min to allow the red blood cells to settle. The plasma was drawn off and transferred to a 50 mL Falcon tube. The tube was centrifuged at 1100 rpm for 15 min to pellet the leukocytes. The plasma was removed and the cells resuspended in 10 mL saline. The tube was centrifuged at 1600 rpm for 7 min, the supernatant removed, and the cells resuspended in 10 mL saline and recentrifuged at 1600 rpm for 7 min. The supernatant was then removed and the cells resuspended in 2 mL Diluent C. Into a 1 mL plastic microcentrifuge tube was placed 0.5 mL Diluent C. […] The indium complex in Diluent C was immediately added to the leukocytes and the cells were placed vertically on a Nutator rocking apparatus and rocked gently for 30 min at room temperature. The cells were then underlayered with 5 mL of platelet poor plasma and centrifuged at 1600 rpm for 7 min to pellet the cells. The supernatant was removed, the cells resuspended in 10 mL saline, and transferred to a new tube. The supernatant, cells, and labeling tube were counted for radioactivity. The cells were centrifuged again at 1600 rpm for 7 min, the supernatant removed, and the cells resuspended.

rat splenic lymphocytes [1] = assay: Lymphocyte labeling yield, rat splenic lymphocytes; format: cell-based
Description: (§1) Peripheral blood lymphocytes (PBLs) from dogs and rats as well as rat splenic lymphocytes were labeled in high yields with either 4a or 4b (Table 2). Viability of labeled lymphocytes was >90% both before and after radiolabeling (Trypan Blue exclusion test).
A 400 g Sprague-Dawley rat was sacrificed to remove the spleen (1.133 g). The spleen was perfused with phosphate buffered saline to remove the lymphocytes. The lymphocytes in 10 mL PBS were split into two equal portions and each portion was layered onto 5 mL of Lympholyte-Rat (Cedar Lane Laboratories Limited, Ontario, Canada) in a separate 15 mL centrifuge tube. The tubes were centrifuged at 2700 rpm for 20 minutes at room temperature. The lymphoctyes appeared as a layer at the interface of the saline and Lympholyte-Rat layers. The saline layer was removed and discarded. The lymphocyte containing layer from each tube was removed and transferred to a single 50 mL Falcon tube. To this tube was added 10 mL saline and the tube centrifuged for 7 minutes at 1600 rpm. The supernatant was removed, the cells resuspended in 10 mL saline, and centrifuged at 1600 rpm for 7 minutes. The supernatant was removed and the cells suspended in 1 mL saline. […] […] To these cells was added 20 ul of an ethanolic solution of 3-[4-[2-(N,N-dihexylamino)phenyl]ethyenyl]pyridino-E-1-[^125 I]-iodo-propene (15.6 uCi) dissolved in 500 ul of saline. The cells were place vertically on a Nutator rocking apparatus and rocked gently for 20 minutes at room temperature. The cells were then underlayered with 7.5 mL of saline and centrifuged at 1600 rpm for seven minutes to pellet the cells. The supernatant was removed, the cells resuspended in 10 mL saline, and transferred to a new tube. The supernatant, cells, and labeling tube were counted for radioactivity. The cells were centrifuged again at 1600 rpm for 7 minutes, the supernatant removed, and the cells resuspended. After the second centrifugation, 11.9uCi (77%) of ^131 I was bound to the lymphocytes. After labeling, 12% of the cells were dead by the trypan blue exclusion test.

[2] = Viability of labeled lymphocytes (Trypan Blue exclusion test); format: cell-based, dog and rat; conditions: before and after radiolabeling
Text: as §1

[3] = Rat splenic lymphocyte survival after labeling (Trypan blue exclusion test); format: cell-based; conditions: rat, splenic lymphocytes; Example 11, trypan blue; 12% dead before labeling; read-out: dead cells after labeling
Description: (§2) A 400 g Sprague-Dawley rat was sacrificed to remove the spleen (1.133 g). The spleen was perfused with phosphate buffered saline to remove the lymphocytes. The lymphocytes in 10 mL PBS were split into two equal portions and each portion was layered onto 5 mL of Lympholyte-Rat (Cedar Lane Laboratories Limited, Ontario, Canada) in a separate 15 mL centrifuge tube. The tubes were centrifuged at 2700 rpm for 20 minutes at room temperature. The lymphoctyes appeared as a layer at the interface of the saline and Lympholyte-Rat layers. The saline layer was removed and discarded. The lymphocyte containing layer from each tube was removed and transferred to a single 50 mL Falcon tube. To this tube was added 10 mL saline and the tube centrifuged for 7 minutes at 1600 rpm. The supernatant was removed, the cells resuspended in 10 mL saline, and centrifuged at 1600 rpm for 7 minutes. The supernatant was removed and the cells suspended in 1 mL saline. Using a hemocytometer, a total of 5 million lymphocytes were counted. […] To these cells was added 20 ul of an ethanolic solution of 3-[4-[2-(N,N-dihexylamino)phenyl]ethyenyl]pyridino-E-1-[^125 I]-iodo-propene (15.6 uCi) dissolved in 500 ul of saline. The cells were place vertically on a Nutator rocking apparatus and rocked gently for 20 minutes at room temperature. […] The supernatant, cells, and labeling tube were counted for radioactivity. […]

rat splenic lymphocytes [4] = assay: as above; format: cell-based; conditions: Example 11, trypan blue
Description: as §2

mononuclear leukocytes = assay: Mononuclear leukocyte labeling yield; format: cell-based; conditions: harvested from 20 mL canine blood via isolymph method
Description: Using ^125 I-4b and ^131 I-4b, mononuclear leukocytes harvested from 20 mL canine blood via the isolymph method (sodium diatrizoste and Ficol 400, d=1.077) were labeled in 77% and 85% yields, respectively. Thus, the present compounds can label both lymphocytes and mixed leukocytes in high yields, and that the latter can be used to image sites of focal inflammation.

[5] = tested on: sodium urate induced abscess in the stifle joint; assay: Localization of labeled leukocytes in dogs having a sodium urate induced abscess in the stifle joint (aspirate, gamma camera images)
Text: Mixed leukocytes labeled with 4b and ^111 In-oxine labeled mixed leukocytes were compared in dogs having a sodium urate-induced inflammation in the left stifle joint. […]

## CCCCN(CCCC)c1ccc(/C=C/c2cc[n+](C/C=C/[125I])cc2)cc1 [Compound 4a]
Mixed leukocytes; 10% PPP in saline
  Mixed leukocyte labeling yield: 41%
Mixed leukocytes; Diluent C
  Mixed leukocyte labeling yield: 75%
Mixed leukocytes; saline, 2 washes of pellet
  Mixed leukocyte labeling yield: 72%
Mixed leukocytes; saline, no washes of pellet
  Mixed leukocyte labeling yield: 71%
Mixed leukocytes; Diluent C, or saline with or without washes of the cell pellet
  Leukocyte labeling (in words): labeled leukocytes in high yield
Rat splenic lymphocytes [1]; PBLs from dogs and rats and rat splenic lymphocytes
  Lymphocyte labeling (in words): high yields
Rat splenic lymphocytes [1]; Rat spleen, Lympholyte-Rat, 63-300 × 10^6 cells, PBS, 125I, average
  Lymphocyte labeling yield: 71%
[2]
  viability: > 90%

## CCCCCCN(CCCCCC)c1ccc(/C=C/c2cc[n+](C/C=C/[125I])cc2)cc1 [^125 I-4b, 3-[4-[2-(N,N-dihexylamino)phenyl]ethyenyl]pyridino-E-1-[^125 I]-iodo-propene]
Mixed leukocytes; 1.5 ml saline, pellet not washed
  Labeling Yield: 80%
Mixed leukocytes; 1.5 ml saline, pellet washed with 1×10 mL saline
  Labeling Yield: 84%
Mixed leukocytes; 1.5 ml saline, pellet washed with 2×10 mL saline
  Labeling Yield: 82%
Mixed leukocytes; Table 3 Experiment 1, 4b 250 Ci/mmol, Diluent C after 2 × 10 mL saline washes
  Labeling Yield: 84%
Mixed leukocytes; Table 3 Experiment 2, 4b footnotes a,c (250 / 1000 Ci/mmol)
  Labeling Yield: 88%
Mixed leukocytes; unwashed, 1.5 mL 10% PPP in saline
  Labeling Yield: 83%
Rat splenic lymphocytes [1]; Example 11, 5 million lymphocytes, saline, 15.6 uCi, 20 min, room temperature
  radioactivity bound to the lymphocytes (labeling yield): 77%
Rat splenic lymphocytes [1]; Example 11, of 15.6 uCi added
  radioactivity bound to the lymphocytes: 11.9 uCi
[3]
  cytotoxicity: 12%
Rat splenic lymphocytes [4]
  effect of labeling on cell survival: the labeling did not affect cell survival
Mononuclear leukocytes
  Mononuclear leukocyte labeling yield: 77%
[5]; Experiment 1
  131I/111In or 125I/111In in aspirate: 1.65
  % aspirate radioactivity cell bound: 98%
[5]; Experiment 1, injected 84 μCi 125I-4b, 500 μCi 111In-oxine, Diluent C
  % inj. dose in abscess aspirate: 0.594%
[5]; Experiment 2
  131I/111In or 125I/111In in aspirate: 6.0
  % aspirate radioactivity cell bound: 96%
[5]; Experiment 2, injected 66 μCi 125I-4b, 312 μCi 111In-oxine
  % inj. dose in abscess aspirate: 0.527%
[5]; sodium urate induced abscess, dog
  localization of labeled leukocytes in induced inflammatory site/abscess, compared with 111In-oxine (111In-labeled) leukocytes: higher degree of localization
